Activity calls are given as the source filed them.
What was measured:
[1] = cytotoxicity in SR immunoblastic lymphoma cells – cell-based, CellTiter-Glo ATP luminescence, 8-48 h, dry powder, mechanism study for HRAS target identification, late-stage follow-up (AID 720608); format: functional
[2] = time-course viability loss in HT-29 cells – cell-based, CellTiter-Glo, multiple timepoints, dry powder, HRas target identification project, dose response (AID 720598); format: functional
[3] = cytotoxicity in CCRF-CEM lymphoblastic leukemia cells – cell-based, CellTiter-Glo ATP luminescence, 8/24/48 h, dry powder, HRAS target identification, dose response (AID 720607); format: functional
[4] = cytotoxicity in LOX IMVI melanoma cells – cell-based, CellTiter-Glo ATP luminescence, 8/24/48 h, dry powder, HRAS target identification, dose response (AID 720602); format: functional
[5] = cytotoxicity in SNB-75 CNS cells – cell-based, CellTiter-Glo ATP luminescence, several timepoints, dry powder, mechanism study for HRAS target identification, late-stage follow-up (AID 720624); format: functional
[6] = cytotoxicity in MITF-independent A375 cells – cell-based, CellTiter-Glo luminescence, dry powder, set 4, counter-screen for MITF inhibitor project, dose response (AID 624364); format: functional; details: A-375;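 also: A375 melanoma cells are MITF independent so this is a counter screen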
[7] = viability loss in MITF-independent A375 cells – cell-based, CellTiter-Glo luminescence, dry powder, set 2, counter-screen for MITF inhibitor project, dose response (AID 624489); format: functional; details: A-375;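 also: actives are compounds lowering A375 viability meaning general cytotoxicity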
[8] = viability of PTEN-deleted HCT116 cells – cell-based, HCT116 PTEN knockout, dose response (AID 1047); format: functional;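 also: HCT116 colon tumor cells with PTEN knocked out; cells exposed to compound for 60 hours before readout; potency for loss of cell viability measured by luminescence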
[9] = viability of HCT116 lacking mutant beta-catenin – cell-based, human colon tumor, dose response (AID 1045); format: functional;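 also: HCT116 colon tumor cells with beta catenin knocked out; cells exposed to compound for 60 hours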
Cytochrome P450 2C9 = Cytochrome P450 2C9 (Homo sapiens, UniProt P11712)
Cytochrome P450 3A4 = Cytochrome P450 3A4 (Homo sapiens, UniProt P08684);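 also: CYP3A4 tested as one member of a cytochrome P450 panel screen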
[10] = biological target: T1, Microphthalmia-associated transcription factor (Homo sapiens, UniProt O75030); test: reducers of TRPM1 reporter luminescence, concentration series – cell-based, SK-MEL-5, cherry-picked, set 3, MITF inhibitor project, dose response (AID 493073); format: functional;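 also: SK-MEL-5 melanoma cells with luciferase driven by the MITF target TRPM1 promoter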
T1 sequence (O75030 whole entry): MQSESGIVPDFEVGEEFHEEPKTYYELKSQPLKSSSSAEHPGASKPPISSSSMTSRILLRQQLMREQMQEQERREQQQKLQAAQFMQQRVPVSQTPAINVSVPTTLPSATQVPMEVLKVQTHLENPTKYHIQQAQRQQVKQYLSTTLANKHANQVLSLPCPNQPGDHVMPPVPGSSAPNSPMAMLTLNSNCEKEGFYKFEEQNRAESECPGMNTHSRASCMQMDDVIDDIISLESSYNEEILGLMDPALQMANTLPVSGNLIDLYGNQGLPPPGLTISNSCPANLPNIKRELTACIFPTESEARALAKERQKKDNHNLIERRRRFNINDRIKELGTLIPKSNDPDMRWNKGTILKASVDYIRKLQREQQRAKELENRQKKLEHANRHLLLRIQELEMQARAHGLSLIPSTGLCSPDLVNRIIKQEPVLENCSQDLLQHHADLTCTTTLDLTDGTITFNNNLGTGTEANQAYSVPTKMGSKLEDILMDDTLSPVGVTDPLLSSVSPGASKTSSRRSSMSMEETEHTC

[11] = HEK-293T viability loss after treatment – luminescence, T-cell screen hits, cytotoxicity control for TCR NF-kB inhibitor project, dose response (AID 489026); format: functional, cell-based;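 also: cells exposed to compound about 14 hours before the viability readout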
[12] = NIH-3T3 fibroblast cytotoxicity, dose response, cytotoxicity control, cell-based, fluorescence, Alamar Blue, secondary assay (AID 2327); format: functional;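 also: NIH-3T3 mouse fibroblasts cultured with fluconazole at 8 µg/mL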
[13] = reduced cellular PGC1a acetyl-lysine signal – cell-based, cherry-picked samples, dose response (AID 720514); format: functional;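 also: potency may reflect raised or lowered acetylation signal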
[14] = fluconazole-exposed Candida albicans growth modulators – fluorescence, retest, confirmation (AID 2467); format: functional, cell-based
[15] = BioA aminotransferase inhibition, coupled fluorescent readout – biochemical, coupled fluorescence displacement, 20-point, dry powder, dose response (AID 743357); format: functional
Transthyretin = Transthyretin (Homo sapiens, UniProt P02766); test: Luminescence-based cell-based high throughput dose response assay to identify activators of Transthyretin (TTR) transcription.; format: functional
[16] = ATP-based viability loss in HeLa cells – cell-based, CellTiter-Glo luminescence, dry powder, set 2, cytotoxicity control, dose response (AID 720593); format: functional
[17] = ATP-based viability loss in HEK293T cells – cell-based, CellTiter-Glo luminescence, dry powder, set 2, cytotoxicity control, dose response (AID 720595); format: functional; details: HEK293
[18] = Luminescence-based counterscreen assay for KLF5 inhibitors: dose response cell-based high throughput screening assay to identify cytotoxic compounds using the IEC-6 intestinal epithelial cell line. [Related pubchem assays: 1700 (Primary screen.), 1834 (Confirmation screen.), 1858 (Summary AID.), 1905 (Counterscreen.)]; format: functional
Nonstructural protein 1 = Nonstructural protein 1 (Influenza A virus, UniProt Q194T2); format: functional, Influenza A virus (A/California/07/2009(H1N1))
Nonstructural protein 1, sequence (Q194T2 whole entry): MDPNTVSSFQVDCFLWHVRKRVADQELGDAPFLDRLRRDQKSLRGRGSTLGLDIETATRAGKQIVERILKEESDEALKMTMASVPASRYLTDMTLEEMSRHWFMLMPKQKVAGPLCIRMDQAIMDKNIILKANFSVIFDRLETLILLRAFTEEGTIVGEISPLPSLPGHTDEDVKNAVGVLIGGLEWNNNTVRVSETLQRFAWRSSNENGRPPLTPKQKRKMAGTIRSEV

Cytochrome P450 3A4, sequence (P08684 whole entry): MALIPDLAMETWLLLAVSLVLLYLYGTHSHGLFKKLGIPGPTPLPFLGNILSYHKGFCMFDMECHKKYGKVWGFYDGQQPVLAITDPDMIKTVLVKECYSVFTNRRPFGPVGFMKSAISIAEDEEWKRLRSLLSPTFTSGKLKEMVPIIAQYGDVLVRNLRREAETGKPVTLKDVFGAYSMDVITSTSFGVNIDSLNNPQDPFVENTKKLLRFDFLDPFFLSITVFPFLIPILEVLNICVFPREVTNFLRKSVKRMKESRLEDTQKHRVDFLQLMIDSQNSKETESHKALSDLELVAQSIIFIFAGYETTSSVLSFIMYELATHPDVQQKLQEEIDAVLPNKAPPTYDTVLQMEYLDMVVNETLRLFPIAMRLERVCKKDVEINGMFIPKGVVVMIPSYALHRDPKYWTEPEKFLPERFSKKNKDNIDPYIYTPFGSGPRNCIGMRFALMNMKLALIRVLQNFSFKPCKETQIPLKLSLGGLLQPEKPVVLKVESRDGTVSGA
Cytochrome P450 2C9, sequence (P11712 whole entry): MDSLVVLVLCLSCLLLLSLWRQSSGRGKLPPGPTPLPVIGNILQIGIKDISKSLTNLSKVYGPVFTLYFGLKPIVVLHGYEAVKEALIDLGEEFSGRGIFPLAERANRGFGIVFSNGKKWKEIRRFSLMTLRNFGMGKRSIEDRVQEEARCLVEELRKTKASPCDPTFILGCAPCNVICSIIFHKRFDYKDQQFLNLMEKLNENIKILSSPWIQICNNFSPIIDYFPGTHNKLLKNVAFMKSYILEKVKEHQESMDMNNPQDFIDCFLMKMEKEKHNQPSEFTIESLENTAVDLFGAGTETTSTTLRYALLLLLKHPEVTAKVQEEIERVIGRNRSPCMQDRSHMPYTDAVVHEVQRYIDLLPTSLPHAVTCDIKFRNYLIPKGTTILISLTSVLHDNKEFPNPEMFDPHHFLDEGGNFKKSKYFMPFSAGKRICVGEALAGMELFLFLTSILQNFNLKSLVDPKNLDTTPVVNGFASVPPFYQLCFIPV

## Cc1onc(C(=O)N2CCN(C(c3ccc(Cl)cc3)c3ccc(Cl)cc3)CC2)c1[N+](=O)[O-]
[1]
  AC50: 0.181 µM (active)
[2]
  AC50: 1.3 µM (active)
[3]
  AC50: 0.234 µM (active)
[4]
  AC50: 0.199 µM (active)
[5]
  AC50: 0.723 µM (active)

## COc1ccc(C2=C(NC(=O)c3ccccc3OC)C(=O)c3ccccc3C2=O)cc1
[6]
  AC50: 38.1 µM (active)
[7]
  AC50: 32.4 µM (active)

## Cn1c(SC2=CS(=O)(=O)c3ccccc32)nc2ccccc21
[8]
  EC50: 2.87 µM (active)
[9]
  EC50: 1.97 µM (active)
Cytochrome P450 2C9
  AC50: 28.2 µM (inconclusive)
Cytochrome P450 3A4
  AC50: 39.8 µM (inconclusive)
[10]
  AC50: 6.72 µM (active)
[11]
  IC50: > 80 µM (inactive)
[12]
  EC50: 7.76 µM (inconclusive)
[13]
  AC50: 11.3 µM (active)
[14]
  EC50: > 38 µM (not active)

## CC(=O)c1ccc(N2CCN(C(=O)c3cc(Cl)c4c(c3)OCO4)CC2)cc1
[15]
  AC50: 12.2 µM (active)

## CC1CN(Cc2ccccc2)c2nc3c(c(=O)n(CC(N)=O)c(=O)n3C)n2C1 (configuration not stated)
Transthyretin
  EC50: > 167 µM (inactive)

## O=C(CSc1n[nH]c(-c2ccccn2)n1)Nc1ccc(Cl)cc1
[16]
  AC50: 47.5 µM (active)
[17]
  AC50: 2.2 µM (active)
[18]
  IC50: 5.14 µM (active)
Nonstructural protein 1
  IC50: 8.79 µM (active)
